Converted amounts (≈) assume the structure as drawn. Marks after values point to notes of the source that are not given here.
Columns and labels:
[1] = Solubility measurement by shake flask method (UV spectrophotometry); settings: for solubility at 48 h: 37 °C, thermodynamic from solid, 37 ± 1°C; for SChCl-G50%/ SChCl-G10% / SChCl-U50%/ SChCl-U10%: solubility ratio in DES50% to DES10%; for SChCl-G50%/ SChCl-G10%: ChCl-G; for SChCl-U50%/ SChCl-U10%: ChCl-U
Protocol: A DES composed of ChCl + G/U was selected for this study. It was prepared based on a previously reported method in the literature ([13], [14]). First, the components of DESs, including ChCl as a hydrogen bond acceptor (HBA) and G/U as a hydrogen bond donor (HBD), were weighed using an analytical balance (ATX224, Shimadzu, Japan) with 1×10^-4 g precision at a specific mole fraction of 1:2, respectively. The measured amounts of these compositions were added into a beaker and sealed firmly with Parafilm. Then, it was heated at 70°C while stirring at 550 rpm for 60 minutes until a clear and uniform liquid was formed. At the end of the synthesis process of DES, the prepared liquids were cooled and used as a new class of cosolvents for drug solubilization.
Many different techniques of solubility measurements have been reported in the literature. The shake flask is a popular and convenient method for solubility determination ([21]), which was applied in this study. First, solvent mixtures were made by weighing 10:90% and 50:50% mass fractions of DES: water, respectively. Excess amounts of poorly soluble drugs were added into glass vials containing 4 g prepared solvent mixtures. All of the vials were shaken on a shaker (Heidolph, Schwabach, Germany) and placed in an incubator (Kimia Idea Pardaz Azarbaijan (KIPA) co., Tabriz, Iran) at 37 ± 1°C and 180 rpm for 48 hours. […] The saturated solutions were centrifuged at 6000 rpm for 15 minutes (Tomy Micro One, Tokyo, Japan) and filtered in some cases (Filter Bioscience Membrane Technology Co., 0.22 µm). […] Finally, the absorbance of each solution was converted to concentration using the calibration curves, taking into account the dilution factor. The solubility of each drug was then calculated. Solubilities were determined three times in all cases, and the mean ± standard deviation of data was reported.

[2] = pH of saturated solutions (final pH of dissolution medium); format: physicochemical
Source text: Acidic and basic compounds can change the pH of the dissolution medium in water.

[3] = set-up: method as in doi:10.1016/j.molliq.2018.07.065; settings: cited from earlier work
[4] = cited from earlier work
[5] = aqueous with cosolvent or surfactant or cyclodextrin, Water + ChCl-G10%, 10:90% mass fraction choline chloride-glycerol (1:2) DES:water
[6] = aqueous with cosolvent or surfactant or cyclodextrin, Water+ ChCl-G50%, 50:50% mass fraction choline chloride-glycerol (1:2) DES:water
[7] = pH 7.5, aqueous with cosolvent or surfactant or cyclodextrin, Water + ChCl-U10%, 10:90% mass fraction choline chloride-urea (1:2) DES:water
[8] = pH 8.3, aqueous with cosolvent or surfactant or cyclodextrin, Water+ ChCl-U50%, 50:50% mass fraction choline chloride-urea (1:2) DES:water

Row | solubility at 48 h [1, 5] [µg/mL] | solubility at 48 h [1, 6] [µg/mL] | solubility at 48 h [1, 7] [µg/mL] | solubility at 48 h [1, 8] [µg/mL] | pH of saturated solution ([2]; in ChCl-U10%) | pH of saturated solution ([2]; in ChCl-U50%) | pH of saturated solution ([2]; in water) | SChCl-G50%/ SChCl-G10% [1] | SChCl-U50%/ SChCl-U10% [1] | Compound | Solubility, Water [3] | pKa [4]
1 | 60 ± 5 | 255 ± 20 (≈ 1010 µM) | 104 ± 8 | 753 ± 60 (≈ 2980 µM) | – | – | – | 4.24 | 7.25 | O=C1NC(=O)C(c2ccccc2)(c2ccccc2)N1 [Phenytoin, phenytoin] | 0.056 ± 0.0053 ^a g/L | –
2 | – | 2730 ± 230 (≈ 11600 µM) | 463 ± 10 | 3930 ± 344 (≈ 16600 µM) | – | – | – | 8.54 | 8.48 | NC(=O)N1c2ccccc2C=Cc2ccccc21 [Carbamazepine, carbamazepine] | 0.296 ± 0.0139 ^a g/L | –
3 | – | – | – | – | – | – | – | 1.03 | 1.05 | CC(C)NCC(O)COc1ccc(CC(N)=O)cc1 (stereo not drawn) [Atenolol, atenolol] | – | –
4 | 7060 ± 422 | 12700 ± 265 (≈ 92200 µM) | 9840 ± 555 | 32400 ± 671 (≈ 234000 µM) | – | – | – | 1.80 | 3.29 | O=C(O)c1ccccc1O [Salicylic acid, salicylic acid] | 2.755 ± 0.3031 ^a g/L | –
5 | 17 ± 2 | 91 ± 6 (≈ 234 µM) | 18 ± 2 | 151 ± 10 (≈ 388 µM) | – | – | – | 5.25 | 8.42 | CN1CC(=O)N2[C@H](c3ccc4c(c3)OCO4)c3[nH]c4ccccc4c3C[C@@H]2C1=O [Tadalafil, tadalafil] | 0.016 ± 0.0019 ^a g/L | –
6 | 506 ± 17 | 2285 ± 18 (≈ 8920 µM) | 482 ± 15 | 2126 ± 16 (≈ 8300 µM) | – | – | – | 4.52 | 4.41 | Nc1nnc(-c2cccc(Cl)c2Cl)c(N)n1 [Lamotrigine, lamotrigine] | 0.342 ± 0.0161 ^a g/L | –
7 | 35 ± 1 | 77 ± 7 (≈ 145 µM) | 28 ± 1 | 62 ± 6 (≈ 117 µM) | – | – | – | 2.16 | 2.24 | CC(=O)N1CCN(c2ccc(OCC3COC(Cn4ccnc4)(c4ccc(Cl)cc4Cl)O3)cc2)CC1 (stereo not drawn) [Ketoconazole, ketoconazole] | 0.008 ± 0.0008 ^a g/L | –
8 | 32 ± 2 | 40 ± 1 (≈ 121 µM) | 571 ± 35 | 2070 ± 36 (≈ 6250 µM) | 6.1 | 6.2 | 5.6 | 1.28 | 3.63 | CN1C(C(=O)Nc2ccccn2)=C(O)c2ccccc2S1(=O)=O [Piroxicam, piroxicam] | 0.032 ± 0.0014 ^a g/L | –

More lines, now with the values behind:

Row | Compound | solubility at 48 h [1, 5] [µg/mL] | solubility at 48 h [1, 6] [µg/mL] | solubility at 48 h [1, 7] [µg/mL] | solubility at 48 h [1, 8] [µg/mL] | pH of saturated solution ([2]; in ChCl-U10%) | pH of saturated solution ([2]; in ChCl-U50%) | pH of saturated solution ([2]; in water) | SChCl-G50%/ SChCl-G10% [1] | SChCl-U50%/ SChCl-U10% [1] | Solubility, Water [3] | pKa [4]
9 | CC(C)Cc1ccc(C(C)C(=O)O)cc1 (stereo not drawn) [Ibuprofen] | 141 ± 8 | 242 ± 4 (≈ 1170 µM) | 1300 ± 263 | 3890 ± 622 (≈ 18900 µM) | 4.5 | 4.9 | 6.4 | – | – | 0.104 ± 0.0035 ^a g/L | –
10 | O=C(O)CO [Glycolic acid] | – | – | – | – | – | – | – | – | – | – | 3.6
11 | O=C(O)c1ccccc1 [Benzoic acid, benzoic acid] | – | – | – | – | – | – | – | 1.76 | 3.16 | – | –
12 | c1ccc2c(c1)Nc1ccccc1S2 [Phenothiazine, phenothiazine] | 5 | 99 ± 10 (≈ 497 µM) | 23 ± 0.3 | 135 ± 15 (≈ 677 µM) | – | – | – | 18.06 | 5.83 | 0.003 ± 0.0004 ^a g/L | –
13 | COc1ccccc1OCCNCC(O)COc1cccc2[nH]c3ccccc3c12 (stereo not drawn) [Carvedilol, carvedilol] | 159 ± 12 | 873 ± 27 (≈ 2150 µM) | 91 ± 7 | 620 ± 20 (≈ 1530 µM) | – | – | – | 5.48 | 6.79 | 0.032 ± 0.0030 ^a g/L | –
